Test results published in paper PMC11477298, “Small Molecules Inducing Autophagic Degradation of Expanded Polyglutamine Protein through Interaction with Both Mutant ATXN3 and LC3” (International Journal of Molecular Sciences, 2024).

What was measured:
Format in all cases: cell-based, human
[1] = MTT compound cytotoxicity assay; details: human, ATXN3-Q75-GFP SH-SY5Y cells, 0.1–100 μM compound, viability analyzed the next day, n = 3
Description: For the compound cytotoxicity assay, ATXN3-Q75-GFP SY5Y cells (2 × 10^4) were plated into 96-well dishes, grown for 20 h, and treated with 0.1–100 μM test compounds. After 1 day, 3-(4,5-dimethylthiazol-2-yl)-2,5-diphenyltetrazolium bromide (MTT, 5 mg/mL) (Sigma-Aldrich, St. Louis, MO, USA) was added to the cells and incubated for 3 h at 37 °C. Lysis buffer (10% Triton X-100, 0.1 N HCl, 18% isopropanol) was then added to dissolve the insoluble formazan crystals. The absorbance of the purple-colored solution was measured at optical density (OD) 570 nm by using a FLx800 fluorescence microplate spectrophotometer (Bio-Tek, Winooski, VT, USA). The half-maximal inhibitory concentration (IC50) was calculated through the construction of a dose–response curve.

[2] = tested on: ATXN3-Q75-GFP SH-SY5Y cells; test: Confocal microscopy of LC3 puncta, ATXN3-Q75 aggregates and P62 colocalization; details: range over trehalose and the four compounds; for Colocalization coefficient of ATXN3-Q75-GFP with LC3 puncta: untreated 0.014; for Colocalization coefficient of LC3 with P62: untreated 0.21; for LC3 puncta per cell: untreated induced 2.7
Description: ATXN3-Q75-GFP SY5Y cells were seeded onto 12-well plates (1 × 10^5/well) containing poly-L-lysine-coated coverslip on day 1; treated with retinoic acid, test compounds, and doxycycline on day 2; and fixed, permeabilized, and blocked on day 8, as described. The primary anti-LC3 antibody (1:1000; Cell Signaling #83506, Danvers, MA, USA) or anti-P62 antibody (1:1500; Cell Signaling #5114) was used to stain cells at 4 °C overnight. After washing with PBS containing 0.1% Tween 20 (PBST), cells were incubated for 2 h at room temperature with Cy5-conjugated (1:1000, Jackson ImmunoResearch 715-175-150) or Alexa Fluor 555-conjugated (1:500; Invitrogen #A-31572) secondary antibody, and washed three times with PBST. Nuclei were detected using DAPI (0.1 μg/mL; Sigma-Aldrich). The stained cells on coverslips were mounted onto microscope slides with Vectashield antifade mounting medium (Vector Laboratories, Newark, CA, USA) and examined using a Zeiss LSM880 confocal microscope (Carl Zeiss AG, Oberkochen, Baden-Württemberg, Germany). Cell images were acquired at excitation/emission wavelengths of 649/666 nm, 482/536 nm, 555/582 nm, and 385/461 nm for stained LC3 puncta, aggregates, P62, and nuclei, respectively. For colocalization, 300 cells from three independent experiments were analyzed and quantified for the proportion of pixels that LC3 (red) colocalized with P62 (yellow) using Mander’s overlap coefficient (MOC) in ZEN software version 2.1 (Carl Zeiss AG).

[3] = tested on: ATXN3-Q75-GFP SH-SY5Y cells; test: High-content analysis of ATXN3-Q75 aggregation in cells; details: trehalose 10 mM; untreated induced cells 8.2%; day 8
Description: ATXN3-Q75-GFP SH-SY5Y cells (5 × 10^4/well) were plated onto 24-well plates, with retinoic acid addition (10 µM; Sigma-Aldrich) on day 1 to initiate neuronal differentiation. On day 2, the cells were pretreated with disaccharide trehalose (10 mM, as a positive control) or the studied compounds (10 μM) for 8 h, followed by the addition of doxycycline (5 μg/mL, Sigma-Aldrich) to induce ATXN3-Q75-GFP expression. The cells were kept in the medium containing retinoic acid, the test compound, and doxycycline for 6 days, with the culture medium changed on day 5. […]
For the aggregation assay, cells were stained with Hoechst 33342 (0.1 µg/mL; Sigma-Aldrich) at 37 °C for 30 min. […] ATXN3-Q75 aggregation was determined by Transfluor technology based on GFP fluorescence intensity. […] Nuclei were detected using DAPI (0.1 μg/mL; Sigma-Aldrich). […] To quantify neurite outgrowth, microscopic images were segmented with multi-colored masks to assign each outgrowth to a cell body for quantification. Neurite total length (μm) and numbers of process (primary neurites originating from neuronal cell body) and branch (secondary neurites extended from primary neurites) were analyzed (Neurite Outgrowth Application Module; Molecular Devices). In general, 104 cells in each biological replicate were analyzed.

[4] = tested on: ATXN3-Q75-GFP SH-SY5Y cells; test: Filter trap assay of cell lysates; details: trehalose 10 mM; without compound = 100%
Description: The filter retardation assay was performed to quantify ATXN3-Q75 protein aggregates. The purified Trx-His-ATXN3-Q75 protein was incubated with test compounds (100 µM) at 37 °C for 2 days as described. In addition, proteins from compound-treated ATXN3-Q75-GFP SH-SY5Y cells were prepared (as described in Western blotting). Proteins (0.5 µg of biochemical reaction or 20 µg of cellular lysates) were diluted in 2% SDS in phosphate-buffered saline (PBS) and filtered through a cellulose acetate membrane (0.45-μm pore size; Sterlitech, Auburn, WA, USA) pre-equilibrated in 2% SDS in PBS on a dot-blot filtration apparatus (Bio-Rad Laboratories, Hercules, CA, USA). After washing with 2% SDS buffer, the membrane was blocked in PBS containing 5% skim milk at 4 °C overnight. Insoluble ATXN3-Q75 was probed with an anti-His tag (1:2000; OriGene #TA100013, Rockville, MD, USA) or anti-ATXN3 (1:1000; Invitrogen #PA5-26251) antibody. The immune complex on the filter was detected using horseradish peroxidase (HRP)-conjugated goat anti-mouse (#GTX213111-01) or goat anti-rabbit (#GTX213110-01) immunoglobulin G (IgG) antibody (1:5000; GeneTex, Irvine, CA, USA) and a chemiluminescent HRP substrate (Millipore, Billerica, MA, USA). The chemiluminescent signals were captured with an ImageQuant LAS 4000 (GE Healthcare, Chicago, IL, USA) and quantified (Multi Gauge V3.0 software, Fujifilm, Tokyo, Japan). […]

[5] = tested on: ATXN3-Q75-GFP SH-SY5Y cells; test: High-content neurite outgrowth assay; details: for Neurite branch: untreated 1.16; for Neurite length: untreated 23.2 µm
Description: ATXN3-Q75-GFP SH-SY5Y cells (5 × 10^4/well) were plated onto 24-well plates, with retinoic acid addition (10 µM; Sigma-Aldrich) on day 1 to initiate neuronal differentiation. On day 2, the cells were pretreated with disaccharide trehalose (10 mM, as a positive control) or the studied compounds (10 μM) for 8 h, followed by the addition of doxycycline (5 μg/mL, Sigma-Aldrich) to induce ATXN3-Q75-GFP expression. The cells were kept in the medium containing retinoic acid, the test compound, and doxycycline for 6 days, with the culture medium changed on day 5. ATXN3-Q75 aggregation and neurite outgrowth assays were performed on day 8 using a high-content imaging system (ImageXpress Micro Confocal; Molecular Devices).
For the aggregation assay, cells were stained with Hoechst 33342 (0.1 µg/mL; Sigma-Aldrich) at 37 °C for 30 min. Images of the cells were automatically obtained at excitation/emission wavelengths of 482/536 nm (FITC [fluorescein isothiocyanate] filter) for enhanced GFP and 377/447 nm (DAPI [4′,6-diamidino-2-phenylindole] filter) for nucleus counting. ATXN3-Q75 aggregation was determined by Transfluor technology based on GFP fluorescence intensity. For the neurite outgrowth assay, cells were fixed with 4% paraformaldehyde for 30 min, permeabilized with 0.1% Triton X-100 for 10 min, and blocked by non-specific binding with 3% bovine serum albumin for 20 min. The primary TUBB3 (neuronal class III β-tubulin) antibody (1:1000; BioLegend #802001, San Diego, CA, USA) was used to stain cells at 4 °C overnight, followed by Alexa Fluor 555-donkey anti-rabbit IgG secondary antibody (1:1000; Invitrogen #A-31572) staining for 2 h at room temperature. Nuclei were detected using DAPI (0.1 μg/mL; Sigma-Aldrich). Cell images were obtained at excitation/emission wavelengths of 531/593 nm (TRITC [tetramethylrhodamine] filter) for stained neurites and 377/447 nm (DAPI filter) for nuclei. To quantify neurite outgrowth, microscopic images were segmented with multi-colored masks to assign each outgrowth to a cell body for quantification. Neurite total length (μm) and numbers of process (primary neurites originating from neuronal cell body) and branch (secondary neurites extended from primary neurites) were analyzed (Neurite Outgrowth Application Module; Molecular Devices). In general, […] in each biological replicate were analyzed.

[6] = tested on: ATXN3-Q75-GFP SH-SY5Y cells; test: Western blot of LC3-II:LC3-I ratio; details: uninduced = 100%, untreated induced 76%, range over trehalose and the four compounds
Description: For the immunoblotting analysis, ATXN3-Q75-GFP SH-SY5Y cells were seeded in 6-well plates (3 × 10^5/well) and treated with retinoic acid, test compounds, and doxycycline, as described. On day 8, cells were collected and lysed in buffer (50 mM Tris-HCl pH 8.0, 150 mM NaCl, 2 mM EDTA pH 8.0, 0.1% SDS, 0.5% sodium deoxycholate, 1% NP-40) containing the protease inhibitor cocktail (Sigma-Aldrich). After sonication, the lysates were centrifuged (12,000× g for 10 min at 4 °C) and protein concentrations determined (Bradford protein assay; Bio-Rad, Hercules, CA, USA). Aliquots of protein (20 µg) were separated by electrophoresis using 12% SDS-polyacrylamide gel followed by transfer to a polyvinylidene fluoride membrane. After being blocked with 5% skim milk at 4 °C overnight, the membrane was stained with LC3 (1:1000; Medical & Biological Laboratories Co. #PM036, Tokyo, Japan) or GAPDH (glyceraldehyde 3-phosphate dehydrogenase) (1:1000, MDBio #30000002, Taipei, Taiwan) primary antibody at 4 °C overnight. The immune complexes were detected using HRP-conjugated goat anti-rabbit IgG antibody and chemiluminescent substrate, as described.

[7] = compound 10 µM, range over the four named compounds

Structure (SMILES): O=C(/C=C/c1ccco1)c1c(O)c2ccccc2oc1=O [LM-022]
- IC50 at 1 day [1]: 102 µM

Structure (SMILES): CC(=O)/C(=C\c1ccccc1[N+](=O)[O-])Cc1c(-c2ccccc2)[nH]c2ccccc12 [NC009-3]
- IC50 at 1 day [1]: > 100 µM

Structure (SMILES): OC[C@H]1O[C@H](O[C@H]2O[C@H](CO)[C@@H](O)[C@H](O)[C@H]2O)[C@H](O)[C@@H](O)[C@@H]1O [trehalose, reference compound]
- Colocalization coefficient of ATXN3-Q75-GFP with LC3 puncta ([2]; trehalose 10 mM): 0.025–0.030
- Colocalization coefficient of LC3 with P62 ([2]; trehalose 10 mM): 0.26–0.29
- LC3 puncta per cell ([2]; trehalose 10 mM): 4.6–6.7
- Percentage of aggregated cells [3]: 7.4%
- Insoluble aggregated proteins in cell lysates (filter trap) [4]: 45%
- Neurite branch ([5]; trehalose 10 mM): 1.31
- Neurite length ([5]; trehalose 10 mM): 25.5 µm
- Relative LC3-II:LC3-I ratio ([6]; trehalose 10 mM): 102–124%

Structure (SMILES): CCc1cccc2c(C/C(=C/c3ccccc3[N+](=O)[O-])C(C)=O)c[nH]c12 [NC009-6]
- Colocalization coefficient of ATXN3-Q75-GFP with LC3 puncta ([2]; compound 10 μM): 0.025–0.030
- Colocalization coefficient of LC3 with P62 ([2]; compound 10 μM): 0.26–0.29
- LC3 puncta per cell ([2]; compound 10 μM): 4.6–6.7
- IC50 at 1 day [1]: 176 µM
- Neurite branch [5, 7]: 1.34–1.37
- Neurite process ([5]; compound 10 µM, untreated 2.41, range over the four named compounds): 2.55–2.57
- Neurite length [5, 7]: 26.1–26.9 µm
- Relative LC3-II:LC3-I ratio ([6]; compound 10 μM): 102–124%
